Test results: patent publication US8592435B2, “Nitrogen-containing six-membered aromatic ring derivatives and pharmaceutical products containing the same” (Daiichi Sankyo Company, Limited, priority 2007, dated 2013)

Legend:
[1] = test system: spinal cord injury (SCI) model; test: Test Example 7: spinal cord injury (SCI) model in rats; type: in vivo, Slc: SD rats; settings: 1 mg/kg through the tail vein once daily for 10 days, once a week until 5 weeks after surgery
Excerpt: According to the method of Venkata Ramesh Dasari et al. [J Neurotrauma. 2007 February; 24(2):391-410], 9-week-old female Slc: SD rats were used. Animals were anesthetized with pentobarbital and incised along the dorsal midline. After the spinal column was exposed by dorsal midline incision, the 9th thoracic vertebral arch was removed with bone scissors, paying attention not to damage the dura mater. The upper and lower bones were held in place to position the exposed spinal site just under the impactor device (where impact is applied) and then a 200-kdyn force was applied to the site. Tonic extension of the lower limbs by the spinal cord injury was checked.
The test compound used was Example Compound 65, which was administered at a dose of 1 mg/kg. Specifically, the compound was administered through the tail vein once daily for 10 days, starting from 90 min after the surgery. The motor function of lower limb was evaluated by BBB score (Basso D M, Beattie M S, Bresnahan J C: J Neurotrauma. 1995; 12:1-21) once a week until 5 weeks after surgery.

[2] = Repeated oral administration toxicity in rats; type: in vivo; settings: orally administered repeatedly once a day for one week, 150 mg/kg/day
[3] = test system: microsphere (micro-embolism) model; test: Test Example 6: rat microsphere (micro-embolism) model; type: in vivo, Crl:CD(SD) rats; settings: rats, oral 1.0 mg/kg once daily for 10 days (Compound 65 also 0.1 mg/kg); 2 weeks after surgery
Excerpt: According to the method of Ichiro Date et al. [Journal of Neuroscience Research 78; 442-453 (2004)], 8-week-old male Crl:CD(SD) rats were used. Animals were anesthetized with halothane and midline incision was made. Right carotid artery was separated and a thread was looped around the common carotid artery and external carotid artery. The pterygopalatine artery was temporarily clipped with an aneurysm clip. The blood flow through the common carotid artery and external carotid artery was temporarily interrupted and 0.1 mL of a microsphere suspension composed of microspheres dispersed in a 30% sucrose solution (1800 microspheres/0.1 mL) was injected into the common carotid artery. After injection of the suspension, the puncture of the injection needle was filled with instant glue while the blood flow was interrupted. The blood flow was then restored and the surgical wound was sutured. Neurological symptoms were observed the day following the surgery. The animals were assigned to each treated group at random with respect to the measurements of neurological symptoms, the decrease in body weight from the previous day, and the body weight on that day.
The test compounds used were Example Compound 65, 108, 130, 135 and 137, each of which was administered at a dose of 1.0 mg/kg. Example Compound 65 was administered also at a dose of 0.1 mg/kg. Each compound was orally administered once daily for 10 days starting from the following day of the surgery. Coordinated motor functions were measured 5 times on an accelerated rota-rod (4 to 40 rpm/5 min) 2 weeks after the surgery.
Specifically, FIGS. 11 to 15 show the effect of different compounds 2 weeks after the microsphere injection (rota-rod test standard parameter). The figures show the results of rota-rod tests 2 weeks after the ischemic event in which each compound was orally administered at 1.0 mg/kg once daily for 10 days (Example Compound 65 was administered at 0.1 mg/kg or 1.0 mg/kg). What is shown in the figures is the total time of the 5 measurements on rota-rod as a standard parameter.
***: p<0.0001, Dunnett's multiple range test vs. Vehicle.

[4] = test system: myocardial infarction model (LAD occluded); test: Test Example 5: myocardial infarction model in rats; type: in vivo, Slc:SD rats; settings: oral once daily 0.01, 0.1 or 1.0 mg/kg for 28 days, 4 weeks after myocardial infarction
Protocol: According to the method of Masakatsu Wakeno et al. [Circulation 114: 1923-1932 (2006)], 10-week-old male Slc:SD rats were anesthetized with pentobarbital and cut open in the chest area. The left anterior descending coronary artery (LAD) was completely occluded to establish a myocardial infarction model. Sham group underwent only thoracic surgical procedure.
The test compound used was Example Compound 65, which was orally administered once daily at a dose of 0.01 mg/kg, 0.1 mg/kg or 1.0 mg/kg for 28 days starting from the day of establishment of myocardial infarction model (after awakening from anesthesia).
4 weeks after establishing myocardial infarction, animals were anesthetized with pentobarbital and monitored for their cardiachemodynamics using a mirror catheter. Subsequently, blood samples were collected from the abdominal aorta, wet lung weight was measured, and plasma BNP levels after arterial blood sampling were measured (RIA).
FIGS. 7, 8, 9 and 10 show the results of LVEDP, LVdP/dt max, lung weight and plasma […] levels, respectively.
#: P<0.05, ##: P<0.01 between sham and control by Student's t-test
*: P<0.05, **: P<0.01: vs control by Dunnett's test

[5] = test system: critical limb ischemia model (left femoral artery excised); test: Test Example 4: lower limb ischemia (critical limb ischemia) model in mice; type: in vivo, Balb/c mice; settings: oral once daily 0.1 or 1.0 mg/kg for 10 days from femoral artery excision, vs Vehicle
Protocol: According to the method of Ichiro Masaki [Circ Res. 90; 966-973 (2002)], the left femoral artery of Balb/c mice was excised to establish a model of critical limb ischemia (n=29 to 30).
Test compounds used were Example Compounds 65, 92, 114, 130, 135 and 136, each of which was orally administered once daily at a dose of 0.1 mg/kg or 1.0 mg/kg for 10 days starting from the day of femoral artery excision.
The results are shown in FIGS. 1 to 6 in which FIGS. 1, 2, 3, 4, 5 and 6 show the results of Example Compounds 65, 92, 114, 130, 135 and 136, respectively.
In the figures, a thick solid line indicates a Vehicle group, a thin dotted line indicates a group administered 0.1 mg/kg/day of each compound, and a thin solid line indicates a group administered 1.0 mg/kg/day of each compound.
*: P<0.05, **: P<0.01, ***: P<0.001 vs Vehicle by Wilcoxon's test.

chemokine receptor CCR3 = target: T1, chemokine receptor CCR3 (Homo sapiens, UniProt P51677); test: Affinity to chemokine receptor CCR3; type: binding; settings: at a concentration of 10 μM
T1 sequence (P51677 1-355): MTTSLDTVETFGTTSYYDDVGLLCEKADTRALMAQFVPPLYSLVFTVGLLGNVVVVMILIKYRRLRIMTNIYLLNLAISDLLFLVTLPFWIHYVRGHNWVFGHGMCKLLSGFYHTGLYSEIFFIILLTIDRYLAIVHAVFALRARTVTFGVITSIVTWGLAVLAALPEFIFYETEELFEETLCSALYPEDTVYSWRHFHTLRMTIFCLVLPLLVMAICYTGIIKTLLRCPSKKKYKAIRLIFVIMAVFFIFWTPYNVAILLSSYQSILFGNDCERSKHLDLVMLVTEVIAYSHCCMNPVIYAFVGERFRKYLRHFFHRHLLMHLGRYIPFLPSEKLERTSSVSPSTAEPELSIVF
Excerpt: Although the compounds of the present invention are novel compounds, compounds having a partly similar skeleton are described, for example, in Published Japanese Translation of PCT International Application No. 2003-507456, WO 01/79170 and WO 00/23076.

Structure (SMILES): Cc1nc(OCC(=O)N(C)C2CCN(Cc3ccccc3)CC2)nc(C)c1N [Compound 65, 2-(5-amino-4,6-dimethylpyrimidine-2-yloxy)-N-(1-benzylpiperidine-4-yl)-N-methylacetamide]
- motor function of lower limb (BBB score) [1]: highly effective in ameliorating spinal cord injury
- toxicity [2]: did not exhibit toxicity
- coordinated motor functions, total time of 5 measurements on rota-rod [3]: highly effective in ameliorating ischemic cerebral infarction
- end-diastolic pressure (LVEDP) [4]: suppressed
- maximum left ventricular contraction and diastolic velocity (LVdP/dt max) [4]: suppressed the decrease
- wet lung weight [4]: suppressed
- plasma BNP levels ([4]; RIA): suppressed the increase
- survival rate of lower limb [5]: increased survival rate
- affinity to chemokine receptor CCR3 (chemokine receptor CCR3): 0.0%
